One experiment addresses T1, SHP-2 enzyme (Homo sapiens, UniProt Q06124).
T1 construct: Homogeneous Full Length SHP-2 Assay Kit (BPS Bioscience #79330); purchased BPS Bioscience 79330
T1 sequence (Q06124 1-593): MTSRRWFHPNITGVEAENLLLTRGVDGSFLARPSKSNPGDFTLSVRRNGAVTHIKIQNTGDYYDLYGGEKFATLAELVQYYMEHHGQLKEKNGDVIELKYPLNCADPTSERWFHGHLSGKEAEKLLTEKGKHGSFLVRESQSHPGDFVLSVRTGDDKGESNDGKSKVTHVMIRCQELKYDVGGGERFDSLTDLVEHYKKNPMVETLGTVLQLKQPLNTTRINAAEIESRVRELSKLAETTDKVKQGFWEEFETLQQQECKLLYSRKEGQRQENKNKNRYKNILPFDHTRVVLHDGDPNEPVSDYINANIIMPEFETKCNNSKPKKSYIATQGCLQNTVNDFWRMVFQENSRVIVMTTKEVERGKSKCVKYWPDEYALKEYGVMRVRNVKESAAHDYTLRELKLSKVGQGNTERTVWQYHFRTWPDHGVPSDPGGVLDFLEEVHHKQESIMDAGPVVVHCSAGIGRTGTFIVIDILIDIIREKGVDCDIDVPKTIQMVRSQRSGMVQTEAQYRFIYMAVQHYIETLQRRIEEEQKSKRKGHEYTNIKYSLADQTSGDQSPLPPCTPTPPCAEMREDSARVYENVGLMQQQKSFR
The experiment in a line: Phosphatase activity assay (Homogeneous Full Length SHP-2 Assay Kit, DiFMUP substrate). It is filed as biochemical. The following applies: full length SHP-2 activated with 0.5 μM SHP-2 activating Peptide; 1 hour co-incubation; DiFMUP 50 μM, 30 min. As for the experimental part:
IC50 values were assayed using Homogeneous Full Length SHP-2 Assay Kit (BPS Bioscience #79330), which uses 6,8-difluoro-4-methylumbelliferone phosphate (DiFMUP) as the reaction substrate. SHP2 enzyme solution (diluted to 0.04 ng/μL with 1*buffer) was mixed with 0.5 μM SHP-2 activating Peptide in a 1*buffer solution containing 2.5 mM DTT to activate PTP. At the same time, DMSO (0.1% (V/V)) or the compounds (concentration: 0.5 nM to 1 μM) were added, mixed and co-incubated for 1 hour. DiFMUP (50 μM, total reaction system volume of 20 μL) was added, and the reaction was started. After 30 min of incubation, the fluorescence intensity of the reaction system (excitation wavelength: 350 nm, emission wavelength: 460 nm) was measured by Tecan Infinite M1000.

In another experiment the test system is MV-4-11 cell. Put plainly: Cell proliferation assay (Cell Titer-Glo). It is filed as cell-based. The following applies: inhibition of MV-4-11 cell proliferation, Cell Titer-Glo on day 4. As for the experimental part:
MV 411 cells (20000 cells/well) were inoculated and cultured in 96 (Corning #3916) well plates, and the medium was 80 μL/well (IMDM with 10% fetal bovine serum (FBS), Gibco #10099-141C). After 24 hours of incubation, 20 μL of the compounds of the present invention configured to different concentrations (DMSO final concentration of 0.1% (V/V)) were added. On day 4, 60 μL of Cell Titer-Glo (Promega #G7558) was added to each well and mixed at 80 rpm, 25° C., 15 min, and the fluorescence values were detected by Victor X5 (PE).
(In ATP-based viability assays light output follows the ATP content of the culture.)

Structures are written as SMILES. A value given as a limit tells only on which side of the number the result lay.

Consider `Cc1nc(C(=O)N2CCc3nc(N)ccc32)c(N)nc1N1CCC2(CC1)Cc1ccc(F)cc1C2N` (stereo not shown) [Compound 107], for which the IC50 on SHP-2 enzyme is 9 nM; with MV-4-11 cell (Homo sapiens, MV4-11, 96 h), 119 nM.

`Nc1nc2c(cc1F)N(C(=O)c1ncc(N3CCC4(CC3)Cc3ccccc3C4N)nc1N)CC2` (stereo not shown) [Compound 109]: the half-maximal inhibitory concentration (IC50) at SHP-2 enzyme is 3 nM; in the experiment with MV-4-11 cell (Homo sapiens, MV4-11, 96 h), 58 nM.

Consider `Nc1nc2c(s1)CN(C(=O)c1ncc(N3CCC4(CC3)Cc3ccc(C5CC5)cc3C4N)nc1N)CC2` (stereo not shown) [Compound 110], for which the IC50 came to 9 nM on SHP-2 enzyme and 21 nM in the experiment on MV-4-11 cell (Homo sapiens, MV4-11, 96 h).

As to `Cc1nc(N2CCC3(CC2)Cc2ccccc2C3N)c(CO)nc1C(=O)N1Cc2sc(N)nc2C(F)(F)C1` (stereo not shown) [Compound 112], the IC50 at SHP-2 enzyme was 14 nM; in the experiment with MV-4-11 cell (Homo sapiens, MV4-11, 96 h), 18 nM.

Regarding `Cc1ccc2c(c1)C(N)C1(CCN(c3ncc(C(=O)N4Cc5sc(N)nc5C(F)(F)C4)nc3CO)CC1)C2` (stereo not shown) [Compound 113], the IC50 at SHP-2 enzyme is 6 nM; with MV-4-11 cell (Homo sapiens, MV4-11, 96 h), less than 5 nM.

With `Nc1nc2c(s1)CN(C(=O)c1nc(F)c(N3CCC4(CC3)Cc3ccccc3C4N)nc1N)CC2(F)F` (stereo not shown) [Compound 115], the 50% inhibitory concentration (IC50) at SHP-2 enzyme stood at 4 nM; in the experiment on MV-4-11 cell (Homo sapiens, MV4-11, 96 h), 4 nM.

In the case of `Nc1nc2c(s1)CN(C(=O)c1ncc(N3CCC4(CC3)Cc3ccc(F)cc3C4N)nc1N)CC2(F)F` (stereo not shown) [Compound 116], the IC50 on SHP-2 enzyme came out at 5 nM; in the experiment with MV-4-11 cell (Homo sapiens, MV4-11, 96 h), 6 nM.

Turning to `NC(=O)c1nc(C(=O)N2Cc3sc(N)nc3C(F)(F)C2)cnc1N1CCC2(CC1)Cc1ccccc1C2N` (stereo not shown) [Compound 117], the IC50 at SHP-2 enzyme was determined as 11 nM; in the experiment on MV-4-11 cell (Homo sapiens, MV4-11, 96 h) it was 39 nM.

For `Nc1nc2c(s1)CN(C(=O)c1cnc(N3CCC4(CC3)Cc3ccc(F)cc3C4N)c(CO)n1)CC2(F)F` (stereo not shown) [Compound 118], the IC50 is 6 nM at SHP-2 enzyme and 5 nM in the experiment on MV-4-11 cell (Homo sapiens, MV4-11, 96 h).

Consider `COc1ccc2c(c1)C(N)C1(CCN(c3ncc(C(=O)N4Cc5sc(N)nc5C(F)(F)C4)nc3CO)CC1)C2` (stereo not shown) [Compound 119], for which the half-maximal inhibitory concentration (IC50) at SHP-2 enzyme is 7 nM; with MV-4-11 cell (Homo sapiens, MV4-11, 96 h), 5 nM.

Regarding `[2H]C1([2H])CN(C(=O)c2ncc(N3CCC4(CC3)Cc3ccc(OC)cc3C4N)nc2N)Cc2sc(N)nc21` (stereo not shown) [Compound 122], the IC50 came out at 8 nM at SHP-2 enzyme and 25 nM with MV-4-11 cell.

As for `Nc1nc2c(s1)CN(C(=O)c1ncc(N3CCC4(CC3)Cc3ccccc3C4N)nc1N)CC2(F)F` (stereo not shown) [Compound 127], the concentration for half-maximal inhibition (IC50) came to 7 nM at SHP-2 enzyme and 13 nM with MV-4-11 cell (Homo sapiens, MV4-11, 96 h).

Take `Nc1nc2c(s1)CN(C(=O)c1ncc(N3CCC4(CC3)Cc3cc(F)ccc3C4N)nc1N)CC2(F)F` (stereo not shown) [Compound 129]: the IC50 came to 5 nM at SHP-2 enzyme and 9 nM in the experiment with MV-4-11 cell.

Consider `N[C@@H]1c2ccccc2CC12CCN(c1cnc(C(=O)N3CCCc4ncccc43)cn1)CC2` [Compound D1, reference compound], for which the IC50 at SHP-2 enzyme worked out at 37 nM; in the experiment on MV-4-11 cell (Homo sapiens, MV4-11, 96 h), 860 nM.

In general, IC50 refers to the midpoint of a concentration-inhibition curve.
